Measurements taken from ChEMBL document CHEMBL5463728, “Data for DCP probe BAY-6096” (2023).

Legend:
Details in all cases: Compound concentration 10.0 uM
[1] = molecular target: Histamine H1 receptor (Homo sapiens) (UniProt P35367)
[2] = molecular target: Sodium-dependent serotonin transporter (Homo sapiens) (UniProt P31645)
[3] = molecular target: Glucocorticoid receptor (Homo sapiens) (UniProt P04150)

Measured: inhibition

Histamine H1 receptor (Homo sapiens), sequence (P35367 whole entry): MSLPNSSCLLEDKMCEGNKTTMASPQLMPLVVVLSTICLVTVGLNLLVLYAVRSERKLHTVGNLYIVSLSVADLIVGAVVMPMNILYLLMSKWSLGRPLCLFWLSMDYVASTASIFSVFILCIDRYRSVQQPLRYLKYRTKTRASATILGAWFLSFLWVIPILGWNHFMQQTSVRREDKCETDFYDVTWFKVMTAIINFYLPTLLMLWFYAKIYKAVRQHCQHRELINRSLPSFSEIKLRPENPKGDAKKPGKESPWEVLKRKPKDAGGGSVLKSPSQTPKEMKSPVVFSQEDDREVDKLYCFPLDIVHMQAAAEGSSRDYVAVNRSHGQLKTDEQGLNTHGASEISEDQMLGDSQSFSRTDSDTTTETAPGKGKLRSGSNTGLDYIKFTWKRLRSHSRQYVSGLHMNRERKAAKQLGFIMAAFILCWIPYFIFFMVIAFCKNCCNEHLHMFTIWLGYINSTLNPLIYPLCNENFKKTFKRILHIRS
Glucocorticoid receptor (Homo sapiens), sequence (P04150 whole entry): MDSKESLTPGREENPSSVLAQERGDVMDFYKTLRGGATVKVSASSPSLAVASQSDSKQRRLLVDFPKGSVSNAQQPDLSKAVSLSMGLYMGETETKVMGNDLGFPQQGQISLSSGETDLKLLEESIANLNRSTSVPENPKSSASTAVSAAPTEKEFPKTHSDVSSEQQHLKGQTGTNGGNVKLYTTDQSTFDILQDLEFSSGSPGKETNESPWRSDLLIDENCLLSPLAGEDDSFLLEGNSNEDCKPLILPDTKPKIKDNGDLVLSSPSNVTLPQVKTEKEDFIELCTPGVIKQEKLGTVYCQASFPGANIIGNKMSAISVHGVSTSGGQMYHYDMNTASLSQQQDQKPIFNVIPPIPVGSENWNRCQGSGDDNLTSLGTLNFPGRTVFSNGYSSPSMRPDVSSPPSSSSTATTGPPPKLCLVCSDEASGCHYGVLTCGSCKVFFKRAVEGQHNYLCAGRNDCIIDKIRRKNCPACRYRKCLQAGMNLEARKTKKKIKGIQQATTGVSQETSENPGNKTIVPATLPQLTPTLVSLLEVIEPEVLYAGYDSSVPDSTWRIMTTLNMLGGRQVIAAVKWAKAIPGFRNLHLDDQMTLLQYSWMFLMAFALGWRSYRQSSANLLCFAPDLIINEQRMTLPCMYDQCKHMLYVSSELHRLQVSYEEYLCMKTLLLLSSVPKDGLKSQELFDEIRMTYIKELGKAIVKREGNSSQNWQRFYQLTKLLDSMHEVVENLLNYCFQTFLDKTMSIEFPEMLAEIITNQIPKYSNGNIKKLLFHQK
Sodium-dependent serotonin transporter (Homo sapiens), sequence (P31645 whole entry, looked up): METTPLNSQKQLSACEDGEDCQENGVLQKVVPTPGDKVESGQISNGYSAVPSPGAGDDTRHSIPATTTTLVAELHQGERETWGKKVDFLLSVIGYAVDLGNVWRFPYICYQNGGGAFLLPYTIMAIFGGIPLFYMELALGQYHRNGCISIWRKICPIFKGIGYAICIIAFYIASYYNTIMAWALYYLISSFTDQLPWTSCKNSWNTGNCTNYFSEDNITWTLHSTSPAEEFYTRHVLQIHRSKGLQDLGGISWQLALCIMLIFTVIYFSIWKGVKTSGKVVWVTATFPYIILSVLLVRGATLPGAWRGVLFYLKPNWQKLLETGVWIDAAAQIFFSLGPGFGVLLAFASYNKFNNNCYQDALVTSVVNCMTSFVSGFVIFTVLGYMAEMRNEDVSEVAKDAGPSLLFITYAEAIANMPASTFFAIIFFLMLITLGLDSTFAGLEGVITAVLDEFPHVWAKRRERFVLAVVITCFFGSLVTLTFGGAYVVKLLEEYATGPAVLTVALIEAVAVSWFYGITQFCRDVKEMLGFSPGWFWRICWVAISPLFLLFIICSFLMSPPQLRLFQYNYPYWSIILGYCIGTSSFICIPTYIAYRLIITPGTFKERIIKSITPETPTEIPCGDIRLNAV

CNc1cc[n+](CCNC(=O)c2ccn3c(-c4c(C)noc4C)cnc3c2)cc1
inactive: [1] 0.5% | [2] 0.4% | [3] 1.3%
